Measured values from the NIST ThermoML archive (doi:10.1021/je060271a).
± gives the expanded uncertainty stated by the source.

Settings: 283.15 K, Liquid, Vibrating tube method

CCCCCC(=O)OCC(COC(=O)CCCCC)(COC(=O)CCCCC)COC(=O)CCCCC [pentaerythritol tetrahexanoate]
Settings	mass density [kg/m3]
219.9 kPa	1004.3 ± 1.2
220.4 kPa	1004.3 ± 1.2
221.1 kPa	1004.3 ± 1.2
221.3 kPa	1004.1 ± 1.2
222 kPa	1004.2 ± 1.2
222.5 kPa	1004.3 ± 1.2
223.2 kPa	1004.1 ± 1.2
223.5 kPa	1004.4 ± 1.2
224.1 kPa	1004.3 ± 1.2
227.9 kPa	1004.2 ± 1.2
228.4 kPa	1004.2 ± 1.2
228.8 kPa	1004.2 ± 1.2
229.3 kPa	1004.3 ± 1.2
230 kPa	1004.2 ± 1.2
230.8 kPa	1004.4 ± 1.2
231.2 kPa	1004.2 ± 1.2
232.1 kPa	1004.3 ± 1.2
232.4 kPa	1004.2 ± 1.2
233.4 kPa	1004.2 ± 1.2
233.6 kPa	1004.3 ± 1.2
234.8 kPa	1004.1 ± 1.2
236 kPa	1004.3 ± 1.2
237.6 kPa	1004.4 ± 1.2
238.1 kPa	1004.2 ± 1.2
238.8 kPa	1004.2 ± 1.2
239.2 kPa	1004.3 ± 1.2
239.9 kPa	1004.3 ± 1.2
240.7 kPa	1004.2 ± 1.2
241.4 kPa	1004.3 ± 1.2
242 kPa	1004.4 ± 1.2
242.8 kPa	1004.3 ± 1.2
243.5 kPa	1004.3 ± 1.2
243.9 kPa	1004.3 ± 1.2
244.9 kPa	1004.3 ± 1.2
245.6 kPa	1004.1 ± 1.2
246.3 kPa	1004.3 ± 1.2
247 kPa	1004.3 ± 1.2
247.7 kPa	1004.3 ± 1.2
248.6 kPa	1004.3 ± 1.2
249.6 kPa	1004.1 ± 1.2
249.9 kPa	1004.2 ± 1.2
250.5 kPa	1004.3 ± 1.2
251.5 kPa	1004.3 ± 1.2
251.9 kPa	1004.3 ± 1.2
252.2 kPa	1004.3 ± 1.2
252.7 kPa	1004.2 ± 1.2
253.4 kPa	1004.3 ± 1.2
254.6 kPa	1004.3 ± 1.2
255.2 kPa	1004.3 ± 1.2
256 kPa	1004.3 ± 1.2
256.9 kPa	1004.2 ± 1.2
257.8 kPa	1004.4 ± 1.2
258.6 kPa	1004.3 ± 1.2
259.7 kPa	1004.3 ± 1.2
260.5 kPa	1004.3 ± 1.2
261.2 kPa	1004.3 ± 1.2
261.9 kPa	1004.2 ± 1.2
262.8 kPa	1004.2 ± 1.2
263.5 kPa	1004.4 ± 1.3
264.5 kPa	1004.2 ± 1.2
265.2 kPa	1004.2 ± 1.2
266.4 kPa	1004.3 ± 1.2
267 kPa	1004.3 ± 1.2
267.8 kPa	1004.2 ± 1.2
269.1 kPa	1004.3 ± 1.2
269.8 kPa	1004.3 ± 1.2
270.8 kPa	1004.3 ± 1.2
271.7 kPa	1004.3 ± 1.2
272.5 kPa	1004.3 ± 1.2
273.4 kPa	1004.3 ± 1.2
274.4 kPa	1004.2 ± 1.2
275.3 kPa	1004.2 ± 1.2
276.4 kPa	1004.3 ± 1.2
277.6 kPa	1004.4 ± 1.2
278.1 kPa	1004.2 ± 1.2
279.1 kPa	1004.3 ± 1.2
280.5 kPa	1004.2 ± 1.2
281.2 kPa	1004.2 ± 1.2
282.6 kPa	1004.3 ± 1.2
283.7 kPa	1004.3 ± 1.2
284.3 kPa	1004.2 ± 1.2
285.7 kPa	1004.3 ± 1.2
286.8 kPa	1004.3 ± 1.2
287.6 kPa	1004.2 ± 1.2
288.9 kPa	1004.2 ± 1.2
289.6 kPa	1004.4 ± 1.2
290.8 kPa	1004.3 ± 1.2
291.8 kPa	1004.2 ± 1.2
292.9 kPa	1004.3 ± 1.2
294.1 kPa	1004.4 ± 1.2
295.1 kPa	1004.3 ± 1.2
296.5 kPa	1004.2 ± 1.2
297.4 kPa	1004.2 ± 1.2
298.6 kPa	1004.1 ± 1.2
299.8 kPa	1004.2 ± 1.2
300.9 kPa	1004.3 ± 1.2
301.9 kPa	1004.3 ± 1.2
303.3 kPa	1004.4 ± 1.2
304.3 kPa	1004.4 ± 1.2
305.5 kPa	1004.3 ± 1.2
306.8 kPa	1004.2 ± 1.2
308 kPa	1004.4 ± 1.2
309.4 kPa	1004.3 ± 1.2
310.6 kPa	1004.3 ± 1.2
311.5 kPa	1004.3 ± 1.2
313 kPa	1004.3 ± 1.2
314.1 kPa	1004.2 ± 1.2
315.6 kPa	1004.3 ± 1.2
317.2 kPa	1004.3 ± 1.2
318.8 kPa	1004.2 ± 1.2
320.5 kPa	1004.3 ± 1.2
322.2 kPa	1004.3 ± 1.2
324 kPa	1004.3 ± 1.2
325.2 kPa	1004.3 ± 1.2
326.4 kPa	1004.3 ± 1.2
328.3 kPa	1004.2 ± 1.2
329.5 kPa	1004.3 ± 1.2
331.8 kPa	1004.2 ± 1.2
333.3 kPa	1004.3 ± 1.2
335.1 kPa	1004.4 ± 1.2
336.8 kPa	1004.3 ± 1.2
338.4 kPa	1004.3 ± 1.2
340.1 kPa	1004.3 ± 1.2
341.9 kPa	1004.3 ± 1.2
343.1 kPa	1004.3 ± 1.2
344.6 kPa	1004.3 ± 1.2
346.7 kPa	1004.4 ± 1.2
348.1 kPa	1004.4 ± 1.2
349.2 kPa	1004.4 ± 1.2
350.2 kPa	1004.3 ± 1.2
351.1 kPa	1004.4 ± 1.2
352.6 kPa	1004.4 ± 1.2
354.7 kPa	1004.4 ± 1.2
355.6 kPa	1004.3 ± 1.2
357.2 kPa	1004.4 ± 1.2
358.9 kPa	1004.3 ± 1.2
367.6 kPa	1004.3 ± 1.2
369.3 kPa	1004.4 ± 1.2
371.3 kPa	1004.5 ± 1.2
373.2 kPa	1004.2 ± 1.2
375.4 kPa	1004.3 ± 1.2
377.5 kPa	1004.3 ± 1.2
379.4 kPa	1004.4 ± 1.2
381.5 kPa	1004.4 ± 1.2
383.6 kPa	1004.5 ± 1.2
385.7 kPa	1004.2 ± 1.2
387.9 kPa	1004.3 ± 1.2
390 kPa	1004.4 ± 1.2
391.9 kPa	1004.3 ± 1.2
394 kPa	1004.4 ± 1.2
396.6 kPa	1004.3 ± 1.2
398.4 kPa	1004.4 ± 1.2
401 kPa	1004.4 ± 1.2
413.1 kPa	1004.4 ± 1.2
415.2 kPa	1004.3 ± 1.2
417.8 kPa	1004.3 ± 1.2
420.6 kPa	1004.3 ± 1.2
423.2 kPa	1004.4 ± 1.2
425.6 kPa	1004.3 ± 1.2
428.4 kPa	1004.4 ± 1.2
430.9 kPa	1004.5 ± 1.2
434 kPa	1004.4 ± 1.2
436.2 kPa	1004.5 ± 1.2
442.3 kPa	1004.4 ± 1.2
444.9 kPa	1004.4 ± 1.2
448.1 kPa	1004.4 ± 1.2
450.8 kPa	1004.4 ± 1.2
453.4 kPa	1004.4 ± 1.2
456.8 kPa	1004.4 ± 1.2
459.7 kPa	1004.4 ± 1.2
462.7 kPa	1004.4 ± 1.2
466 kPa	1004.4 ± 1.2
469.4 kPa	1004.4 ± 1.2
472.6 kPa	1004.4 ± 1.2
476 kPa	1004.3 ± 1.2
479.5 kPa	1004.3 ± 1.2
482.8 kPa	1004.4 ± 1.4
486 kPa	1004.4 ± 1.2
489.8 kPa	1004.3 ± 1.2
493.6 kPa	1004.3 ± 1.2
496.7 kPa	1004.5 ± 1.2
512 kPa	1004.5 ± 1.2
515.7 kPa	1004.4 ± 1.2
519.1 kPa	1004.5 ± 1.2
523.7 kPa	1004.3 ± 1.2
527.3 kPa	1004.5 ± 1.2
531.3 kPa	1004.4 ± 1.2
535.3 kPa	1004.4 ± 1.2
540.3 kPa	1004.4 ± 1.2
544 kPa	1004.4 ± 1.2
548.5 kPa	1004.5 ± 1.2
553 kPa	1004.5 ± 1.2
557 kPa	1004.5 ± 1.2
561.4 kPa	1004.4 ± 1.2
566.4 kPa	1004.3 ± 1.2
571.4 kPa	1004.5 ± 1.2
576.3 kPa	1004.4 ± 1.2
580.5 kPa	1004.5 ± 1.2
585.3 kPa	1004.4 ± 1.2
590.2 kPa	1004.5 ± 1.2
595.8 kPa	1004.5 ± 1.2
600.1 kPa	1004.5 ± 1.2
604.8 kPa	1004.6 ± 1.2
611.2 kPa	1004.5 ± 1.2
616.8 kPa	1004.5 ± 1.2
621.8 kPa	1004.6 ± 1.2
627.7 kPa	1004.6 ± 1.2
633.3 kPa	1004.5 ± 1.2
638.7 kPa	1004.5 ± 1.2
644.2 kPa	1004.5 ± 1.2
650.7 kPa	1004.4 ± 1.2
657.1 kPa	1004.4 ± 1.2
676 kPa	1004.5 ± 1.2
681.9 kPa	1004.5 ± 1.2
688 kPa	1004.5 ± 1.2
694.4 kPa	1004.5 ± 1.2
700.5 kPa	1004.5 ± 1.2
707.3 kPa	1004.7 ± 1.2
714.2 kPa	1004.5 ± 1.2
720.3 kPa	1004.5 ± 1.2
728 kPa	1004.5 ± 1.2
734.6 kPa	1004.6 ± 1.2
742.2 kPa	1004.6 ± 1.2
749.5 kPa	1004.6 ± 1.2
756.6 kPa	1004.6 ± 1.2
763.9 kPa	1004.6 ± 1.2
771.1 kPa	1004.5 ± 1.2
780.4 kPa	1004.7 ± 1.2
787.7 kPa	1004.6 ± 1.2
796.1 kPa	1004.5 ± 1.2
803.7 kPa	1004.6 ± 1.2
821.4 kPa	1004.6 ± 1.2
829.9 kPa	1004.6 ± 1.2
840 kPa	1004.6 ± 1.2
848.9 kPa	1004.6 ± 1.2
857.7 kPa	1004.6 ± 1.2
866.4 kPa	1004.7 ± 1.2
877.2 kPa	1004.7 ± 1.2
886.2 kPa	1004.6 ± 1.2
895.6 kPa	1004.7 ± 1.2
905.1 kPa	1004.6 ± 1.2
916.6 kPa	1004.8 ± 1.2
926.7 kPa	1004.6 ± 1.2
936.4 kPa	1004.6 ± 1.2
948.2 kPa	1004.6 ± 1.2
958.6 kPa	1004.7 ± 1.2
969.1 kPa	1004.8 ± 1.2
979.3 kPa	1004.6 ± 1.2
989.7 kPa	1004.8 ± 1.2
1001.9 kPa	1004.8 ± 1.2
1012 kPa	1004.7 ± 1.2
1024.5 kPa	1004.7 ± 1.2
1035.1 kPa	1004.8 ± 1.2
1045.3 kPa	1004.6 ± 1.2
1055.6 kPa	1004.8 ± 1.2
1066.1 kPa	1004.7 ± 1.2
1078.8 kPa	1004.6 ± 1.2
1089.1 kPa	1004.8 ± 1.2
1099.8 kPa	1004.8 ± 1.2
1113 kPa	1004.8 ± 1.2
1123.6 kPa	1004.9 ± 1.2
1134.7 kPa	1004.8 ± 1.2
1147.6 kPa	1004.7 ± 1.2
1158.7 kPa	1004.7 ± 1.2
1170 kPa	1004.8 ± 1.2
1183.6 kPa	1004.9 ± 1.2
1194.7 kPa	1004.7 ± 1.2
1206.3 kPa	1004.9 ± 1.2
1218.1 kPa	1004.8 ± 1.2
1229.9 kPa	1004.9 ± 1.2
1241.6 kPa	1004.9 ± 1.2
1258.7 kPa	1005 ± 1.2
1270.9 kPa	1004.9 ± 1.2
1283.6 kPa	1004.8 ± 1.2
1298.2 kPa	1004.8 ± 1.2
1310.3 kPa	1004.8 ± 1.2
1322.8 kPa	1004.8 ± 1.2
1338.1 kPa	1004.9 ± 1.2
1351.5 kPa	1004.8 ± 1.2
1364.1 kPa	1004.9 ± 1.2
1377 kPa	1004.9 ± 1.2
1393.1 kPa	1004.8 ± 1.2
1406.3 kPa	1005 ± 1.2
1420 kPa	1004.9 ± 1.2
1433.4 kPa	1005 ± 1.2
1449.5 kPa	1005 ± 1.2
1462.7 kPa	1005 ± 1.2
1476.5 kPa	1004.8 ± 1.2
1492.4 kPa	1005 ± 1.2
